pIC50: −log10 of the molar value. Where two headings read alike, the source gives them in different places.
System: RS4; 11 with G101V mutation
Experiment: In vitro anti-proliferation assay (ATPlite luminescence) in BCL-2-dependent ALL cell line RS4;11 with G101V mutation
Assay type: cell-based
Conditions: read-out: RS411-G101V IC50
Description: Cell antiproliferation was assayed by PerkinElmer ATPlite™ Luminescence Assay System. Briefly, the various test cancer cell lines were plated at a density of about 1×10^4 cells per well in Costar 96-well plates, and were incubated with different concentrations of compounds for about 72 hours in medium supplemented with 10% FBS. One lyophilized substrate solution vial was then reconstituted by adding 5 mL of substrate buffer solution, and was agitated gently until the solution was homogeneous. About 50 μL of mammalian cell lysis solution was added to 100 μL of cell suspension per well of a microplate, and the plate was shaken for about five minutes in an orbital shaker at ˜700 rpm. This procedure was used to lyse the cells and to stabilize the ATP. Next, 50 μL substrate solution was added to the wells and microplate was shaken for five minutes in an orbital shaker at ˜700 rpm. Finally, the luminescence was measured by a PerkinElmer TopCount® Microplate Scintillation Counter. Such assays, carried out with a range of doses of test compounds, allowed the determination of the cellular anti-antiproliferative IC50 of the compounds of the present invention.
The following table lists the IC50 values of another study for certain compounds of the invention.

[1] = cellular anti-proliferative IC50, about 72 hours, medium with 10% FBS, ATPlite

Row | SMILES | pIC50 [1] | pIC50 (Homo sapiens, RS4-11, 72 h)
1 | CC(C)Oc1ccccc1[C@@H]1CN([C@@H](C)c2ccc(F)c(F)c2)CCN1C1CC2(CCN(c3ccc(C(=O)NS(=O)(=O)c4cc5c(c([N+](=O)[O-])c4)N[C@H](C4CCOCC4)CO5)c(N4c5cc6cc[nH]c6nc5O[C@H]5COCC[C@@H]54)c3)CC2)C1 [Example 243, 4-{2-[(2R)-4-[(1S)-1-(3,4-difluorophenyl)ethyl]-2-(2-isopropoxyphenyl)piperazin-1-yl]-7-azaspiro[3.5]nonan-7-yl}-2-[(3R,8S)-2,5-dioxa-9,15,17-triazatetracyclo[8.7.0.0^{3,8}.0^{12,16}]heptadeca-1(10),11,13,16-tetraen-9-yl]-N-[(3R)-5-nitro-3-(oxan-4-yl)-3,4-dihydro-2H-1,4-benzoxazin-7-ylsulfonyl]benzamide] | 7.65 | 
2 | COc1cc(CN2CCN(C3CC4(CCN(c5ccc(C(=O)NS(=O)(=O)c6cc7c(c([N+](=O)[O-])c6)N[C@@H](C6CCOCC6)CO7)c(N6c7cc8cc[nH]c8nc7O[C@H]7COCC[C@@H]76)c5)CC4)C3)[C@H](c3ccccc3C)C2)cnc1N1CCOCC1 [Example 142, 4-(2-((R)-4-((5-methoxy-6-morpholinopyridin-3-yl)methyl)-2-(o-tolyl)piperazin-1-yl)-7-azaspiro[3.5]nonan-7-yl)-N—(((S)-5-nitro-3-(tetrahydro-2H-pyran-4-yl)-3,4-dihydro-2H-benzo[b][1,4]oxazin-7-yl)sulfonyl)-2-((5aS,9aR)-6,7,9,9a-tetrahydro-1H-pyrano[3,4-b]pyrrolo[3′,2′:5,6]pyrido[3,2-e][1,4]oxazin-5(5aH)-yl)benzamide] |  | 8.10
3 | COc1cc(CN2CCN([C@@H]3CC4(CCN(c5ccc(C(=O)NS(=O)(=O)c6ccc(NCC7CCC(C)(O)CC7)c([N+](=O)[O-])c6)c(N6c7cc8cc[nH]c8nc7O[C@H]7COCC[C@@H]76)c5)CC4)[C@@H]3C)[C@@H](c3ccccc3OC(C)C)C2)cnc1N1CCOCC1 (stereo partly drawn) [Example 120, 2-[(3R,8S)-2,5-dioxa-9,15,17-triazatetracyclo[8.7.0.0^{3,8}.0^{12,16}]heptadeca-1(10),11,13,16-tetraen-9-yl]-4-[(1S,2R)-2-[(2S)-2-(2-isopropoxyphenyl)-4-{[5-methoxy-6-(morpholin-4-yl)pyridin-3-yl]methyl}piperazin-1-yl]-1-methyl-7-azaspiro[3.5]nonan-7-yl]-N-[3-nitro-4-({[(1r,4r)-4-hydroxy-4-methylcyclohexyl]methyl}amino)benzenesulfonyl]benzamide] | 6.83 | 
4 | CC(C)Oc1ccccc1[C@@H]1CN(Cc2ccc(F)c(F)c2)CCN1C1CC2(CCN(c3nc(N4c5cc6cc[nH]c6nc5O[C@H]5COCC[C@@H]54)c(C(=O)NS(=O)(=O)c4cc5c(c([N+](=O)[O-])c4)N[C@H](C4CCOCC4)CO5)cc3F)CC2)C1 [Example 235, 6-{2-[(2R)-4-[(3,4-difluorophenyl)methyl]-2-(2-isopropoxyphenyl)piperazin-1-yl]-7-azaspiro[3.5]nonan-7-yl}-2-[(3R,8S)-2,5-dioxa-9,15,17-triazatetracyclo[8.7.0.0^{3,8}.0^{12,16}]heptadeca-1(10),11,13,16-tetraen-9-yl]-5-fluoro-N-[(3R)-5-nitro-3-(oxan-4-yl)-3,4-dihydro-2H-1,4-benzoxazin-7-ylsulfonyl]pyridine-3-carboxamide] | 5.64 | 
5 | Cc1ccccc1[C@@H]1CN(C2CCC(C)(O)CC2)CCN1C1CC2(CCN(c3ccc(C(=O)NS(=O)(=O)c4cc5c(c([N+](=O)[O-])c4)N[C@H](C4CCOCC4)CO5)c(N4c5cc6cc[nH]c6nc5O[C@H]5COCC[C@@H]54)c3)CC2)C1 (stereo partly drawn) [Example 200, 4-(2-((R)-4-((1s,4S)-4-hydroxy-4-methylcyclohexyl)-2-(o-tolyl)piperazin-1-yl)-7-azaspiro[3.5]nonan-7-yl)-N-(((R)-5-nitro-3-(tetrahydro-2H-pyran-4-yl)-3,4-dihydro-2H-benzo[b][1,4]oxazin-7-yl)sulfonyl)-2-((5aS,9aR)-6,7,9,9a-tetrahydro-1H-pyrano[3,4-b]pyrrolo[3′,2′:5,6]pyrido[3,2-e][1,4]oxazin-5(5aH)-yl)benzamide] | 7.08 | 
6 | Cc1ccccc1[C@@H]1CN(Cc2ccc(F)c(F)c2)CCN1C1CC2(CCN(c3ccc(C(=O)NS(=O)(=O)c4cc5c(c([N+](=O)[O-])c4)N[C@H](C4CCOCC4)CO5)c(N4c5cc6cc[nH]c6nc5O[C@H]5COCC[C@@H]54)c3)CC2)C1 [Example 168, 4-{2-[(2R)-4-[(3,4-difluorophenyl)methyl]-2-(2-methylphenyl)piperazin-1-yl]-7-azaspiro[3.5]nonan-7-yl}-2-[(3R,8S)-2,5-dioxa-9,15,17-triazatetracyclo[8.7.0.0^{3,8}.0^{12,16}]heptadeca-1(10),11,13,16-tetraen-9-yl]-N-[(3R)-5-nitro-3-(oxan-4-yl)-3,4-dihydro-2H-1,4-benzoxazin-7-ylsulfonyl]benzamide] | 7.19 | 
7 | Cc1ccccc1[C@@H]1CN(Cc2cnc(N3CCOC[C@@H]3C)c(OC(C)C)c2)CCN1C1CC2(CCN(c3ccc(C(=O)NS(=O)(=O)c4cc5c(c([N+](=O)[O-])c4)N[C@H](C4CCOCC4)CO5)c(N4c5cc6cc[nH]c6nc5O[C@H]5COCC[C@@H]54)c3)CC2)C1 [Example 190, 4-(2-((R)-4-((5-isopropoxy-6-((S)-3-methylmorpholino)pyridin-3-yl)methyl)-2-(o-tolyl)piperazin-1-yl)-7-azaspiro[3.5]nonan-7-yl)-N-(((R)-5-nitro-3-(tetrahydro-2H-pyran-4-yl)-3,4-dihydro-2H-benzo[b][1,4]oxazin-7-yl)sulfonyl)-2-((5aS,9aR)-6,7,9,9a-tetrahydro-1H-pyrano[3,4-b]pyrrolo[3′,2′:5,6]pyrido[3,2-e][1,4]oxazin-5(5aH)-yl)benzamide] |  | 7.95
8 | COc1cc(CN2CCN(C3CC4(CCN(c5ccc(C(=O)NS(=O)(=O)c6ccc(NCC7CCC(C)(O)CC7)c([N+](=O)[O-])c6)c(N6c7cc8cc[nH]c8nc7O[C@H]7COCC[C@@H]76)c5)CC4)C3)[C@H](c3ccccc3C)C2)cnc1N1CCOCC1 (stereo partly drawn) [Example 124, N-((4-((((1r,4r)-4-hydroxy-4-methylcyclohexyl)methyl)amino)-3-nitrophenyl)sulfonyl)-4-(2-((R)-4-((5-(methoxy-d3)-6-morpholinopyridin-3-yl)methyl)-2-(o-tolyl)piperazin-1-yl)-7-azaspiro[3.5]nonan-7-yl)-2-((5aS,9aR)-6,7,9,9a-tetrahydro-1H-pyrano[3,4-b]pyrrolo[3′,2′:5,6]pyrido[3,2-e][1,4]oxazin-5(5aH)-yl)benzamide] | 8.70 | 
9 | CC(C)Oc1ccccc1[C@H]1CN(C2CCC(C)(O)CC2)CCN1C1CC2(CCN(c3ccc(C(=O)NS(=O)(=O)c4ccc(NCC5CCC(C)(O)CC5)c([N+](=O)[O-])c4)c(N4c5cc6cc[nH]c6nc5O[C@H]5COCC[C@@H]54)c3)CC2)C1 (stereo partly drawn) [Example 109, 2-[(3R,8S)-2,5-dioxa-9,15,17-triazatetracyclo[8.7.0.0^{3,8}.0^{12,16}]heptadeca-1(10),11,13,16-tetraen-9-yl]-4-{2-[(2S)-2-(2-isopropoxyphenyl)-4-[(1s,4s)-4-hydroxy-4-methylcyclohexyl]piperazin-1-yl]-7-azaspiro[3.5]nonan-7-yl}-N-[3-nitro-4-({[(1r,4r)-4-hydroxy-4-methylcyclohexyl]methyl}amino)benzenesulfonyl]benzamide] | 7.76 | 
10 | CC(C)Oc1ccccc1[C@H]1CN(CC2CCOCC2)CCN1C1CC2(CCN(c3ccc(C(=O)NS(=O)(=O)c4ccc(NCC5CCC(C)(O)CC5)c([N+](=O)[O-])c4)c(N4c5cc6cc[nH]c6nc5O[C@H]5COCC[C@@H]54)c3)CC2)C1 (stereo partly drawn) [Example 159, 2-[(3R,8S)-2,5-dioxa-9,15,17-triazatetracyclo[8.7.0.0^{3,8}.0^{12,16}]heptadeca-1(10),11,13,16-tetraen-9-yl]-4-{2-[(2S)-2-(2-isopropoxyphenyl)-4-(oxan-4-ylmethyl)piperazin-1-yl]-7-azaspiro[3.5]nonan-7-yl}-N-[3-nitro-4-({[(1r,4r)-4-hydroxy-4-methylcyclohexyl]methyl}amino)benzenesulfonyl]benzamide] | 8.12 | 
11 | Cc1ccccc1[C@@H]1CN(Cc2cnc(N3CCOC[C@@H]3C)c(F)c2)CCN1C1CC2(CCN(c3ccc(C(=O)NS(=O)(=O)c4cc5c(c([N+](=O)[O-])c4)N[C@H](C4CCOCC4)CO5)c(N4c5cc6cc[nH]c6nc5O[C@H]5COCC[C@@H]54)c3)CC2)C1 [Example 189, 2-[(3R,8S)-2,5-dioxa-9,15,17-triazatetracyclo[8.7.0.0^{3,8}.0^{12,16}]heptadeca-1(10),11,13,16-tetraen-9-yl]-4-{2-[(2R)-4-({5-fluoro-6-[(3S)-3-methylmorpholin-4-yl]pyridin-3-yl}methyl)-2-(2-methylphenyl)piperazin-1-yl]-7-azaspiro[3.5]nonan-7-yl}-N-[(3R)-5-nitro-3-(oxan-4-yl)-3,4-dihydro-2H-1,4-benzoxazin-7-ylsulfonyl]benzamide] | 7.43 | 
12 | CC(C)Oc1ccccc1[C@@H]1CN(c2ccccc2)CCN1C1CC2(CCN(c3ccc(C(=O)NS(=O)(=O)c4cc5c(c([N+](=O)[O-])c4)N[C@H](C4CCOCC4)CO5)c(N4c5cc6cc[nH]c6nc5O[C@H]5COCC[C@@H]54)c3)CC2)C1 [Example 222, 2-[(3R,8S)-2,5-dioxa-9,15,17-triazatetracyclo[8.7.0.0^{3,8}.0^{12,16}]heptadeca-1(10),11,13,16-tetraen-9-yl]-4-{2-[(2R)-2-(2-isopropoxyphenyl)-4-phenylpiperazin-1-yl]-7-azaspiro[3.5]nonan-7-yl}-N-[(3R)-5-nitro-3-(oxan-4-yl)-3,4-dihydro-2H-1,4-benzoxazin-7-ylsulfonyl]benzamide] | 6.62 | 

Reference: patent US20250114374A1, “BCL-2 INHIBITORS” (Newave Pharmaceutical Inc., priority 2021, published 2025)
